Experimental data: patent publication US11229675B2, “Therapeutic peptides for excitatory neurotoxicity-related injuries” (Biocells (Beijing) Biotech Co., Ltd., priority 2016, dated 2022)
Several values for one entry are separate records, joined by “and”; a condition that tells them apart may be missing. Identical values can stand only once. Where no end group is shown, it is not given here.

Key:
MCAO model rats [1] = assay: Cerebral infarction volume (TTC staining) in MCAO model rats; details: rat, in vivo
Experimental: The focal cerebral ischemia-reperfusion model was prepared according to the reversible middle cerebral artery occlusion (MCAO) suture method proposed by Longa with modifications in view of the anatomical structure of the rat brain. The rats were anesthetized by intraperitoneal administration of 10% chloral hydrate at a dose of […]. After anesthetization, a cut was created at the cervical midline, and the common carotid artery (CCA), external carotid artery (ECA) and pterygopalatine artery were exposed. The head portion (0.5 cm) of a monofilament nylon fishing line (0.26 mm) was coated with paraffin and a mark was made at 20 mm. All rats were inserted through the right CCA incision, and the pterygopalatine artery was temporarily clamped to prevent mis-insertion. The length of the occlusion line was about 18-20 mm from the bifurcation of CCA depending on the animal's weight, thereby occluding middle cerebral artery on the right side. The skin was then sewed, and the tail end of the occlusion line was partially fixed to the skin. After a period of ischemia for 2 hours, the occlusion line was carefully pulled out to form a reperfusion. The procedure steps for the sham control were the same as the surgery group, except for insertion of a nylon fishing line. The body temperature was maintained at 37±0.5° C. during the ischemia period and 2 h after reperfusion.
The used animals were male adult SD rats (Vittalia) of SPF grade with body weight of 220-250 g.
No drugs were administered to the normal group and the sham group.
The rats were sacrificed by decapitation after scoring. The brain tissues were quickly removed and placed in a refrigerator at −20° C. After 10 minutes, the tissues were placed in a room temperature environment. The brains were placed in a rat brain section mold. After the olfactory bulb, cerebellum and low brain stem were removed, the brains were coronally cut five times at 2 mm thickness as shown in the profile to obtain six continuous raw coronal slices. Then, the brain sections were quickly placed in a 5 ml solution containing 2% TTC, and incubated at 37° C. for 30 minutes in the dark, during which the brain sections were flipped once every 5 minutes. With the TTC staining, the normal tissue would be rose red, and the infarcted tissue would be unstained and retained white. Each group of brain sections was arranged neatly, and photographed. The photos were processed by an image analysis system software and statistically analyzed. The infarction area of each brain section was calculated, and multiplied by the thickness of each brain section (2 mm). The products of the infarction area of individual brain section multiplied by the thickness were summed to obtain the cerebral infarction volume for each animal. The volumes were expressed as percentages accounting for the cerebral hemisphere to eliminate the effects of cerebral edema.

MCAO model rats [2] = assay: HE staining for histological changes in brains of MCAO rats; assay type: in vivo, rat; details: therapeutic and prophylactic administration, 10 mg/kg, 24 h after ischemia
Experimental: The rats in each group were decapitated at 24 h after ischemia, and the resultant brain was coronally sectioned near the optic chiasm with a thickness of about 4 mm. The sections were fixed with 10% formalin solution and dehydrated with alcohol with a concentration gradient from 70% to 100%. The sections were permeabilized twice in xylene, and embedded in paraffin. The paraffin block was carefully trimmed, and immobilized on a paraffin slicing machine, and sliced to sections with a thickness of 4 μm. The paraffin sections were completely unfolded, attached to a clean and dry glass slide, and stored in a refrigerator at 4° C. Conventional HE staining was performed, and the staining results were observed by light microscopy.

rats = assay: Acute toxicity test on rats; assay type: in vivo, rat; details: 200 mg/kg body weight
Experimental: Acute toxicity tests were performed on rats.

| Molecule | Mean of infarction volume percentage (MCAO model rats [1]) | Mean of infarction volume percentage (MCAO model rats [1]; 1 mg/kg) | Reduction of infarction volume percentage vs model group (MCAO model rats [1]; 1 mg/kg) | Mean of infarction volume percentage (MCAO model rats [1]; 3 mg/kg) | Reduction of infarction volume percentage vs model group (MCAO model rats [1]; 3 mg/kg) | effect on cerebral infarction volume (MCAO model rats [1]; 3 mg/kg) | Mean of infarction volume percentage (MCAO model rats [1]; 10 mg/kg) | Reduction of infarction volume percentage vs model group (MCAO model rats [1]; 10 mg/kg) | reduction of cerebral infarction volume (MCAO model rats [1]; 10 mg/kg) | pathological changes of brain tissue (HE staining) (MCAO model rats [2]) | acute toxicity (rats) |
| --- | --- | --- | --- | --- | --- | --- | --- | --- | --- | --- | --- |
| YGRKKRRQRRRKLSSIESDV [NA-1, reference compound] | 38.56% |  |  |  |  |  |  |  |  |  |  |
| CC[C@H](C)[C@H](NC(=O)[C@H](CCC(=O)O)NC(=O)[C@@H](NC(=O)[C@H](CC(=O)O)NC(=O)[C@H](CC(C)C)NC(=O)[C@H](CC(C)C)NC(=O)[C@H](CCCCN)NC(=O)[C@H](CCC(=O)O)NC(=O)[C@H](Cc1ccc(O)cc1)NC(=O)[C@H](CCCNC(=N)N)NC(=O)[C@H](CCCNC(=N)N)NC(=O)[C@H](CCCNC(=N)N)NC(=O)[C@H](CCC(N)=O)NC(=O)[C@H](CCCNC(=N)N)NC(=O)[C@H](CCCNC(=N)N)NC(=O)[C@H](CCCCN)NC(=O)[C@H](CCCCN)NC(=O)[C@H](CCCNC(=N)N)NC(=O)CNC(=O)[C@@H](N)Cc1ccc(O)cc1)[C@@H](C)O)C(=O)O [P5] | 24.84% and 36.54% and 43.22% | 44.23% | 3.76% | 35.66% | 22.41% | desirably reduced the cerebral infarction volume | 19.54% | 57.48% | about 50% | significantly improved | no lethal effect and other obvious toxic side effects |
| YGRKKRRQRRRYEKLSSIESDV [YE-NA-1, reference compound] | 33.96% |  |  |  |  |  |  |  |  |  |  |
